Measured values reported in ChEMBL document CHEMBL4417631, “Oral peptide inhibitors of interleukin-23 receptor and their use to treat inflammatory bowel diseases” (2017).

How the values were obtained:
[1] = Half life in simulated gastric fluid at 20 uM by LC-MS/MS analysis; type: ADME
[2] = Half life in simulated intestinal fluid at 20 uM by LC-MS/MS analysis; type: ADME
Interleukin-23 receptor [3] = molecular target: T1, Interleukin-23 receptor (Homo sapiens, UniProt Q5VWK5); assay: Inhibition of interleukin-23 receptor in human DB cells assessed as reduction in IL-23-stimulated STAT3 phosphorylation incubated for 30 mins by HTRF assay; type: cell-based
T1 sequence (Q5VWK5 whole entry): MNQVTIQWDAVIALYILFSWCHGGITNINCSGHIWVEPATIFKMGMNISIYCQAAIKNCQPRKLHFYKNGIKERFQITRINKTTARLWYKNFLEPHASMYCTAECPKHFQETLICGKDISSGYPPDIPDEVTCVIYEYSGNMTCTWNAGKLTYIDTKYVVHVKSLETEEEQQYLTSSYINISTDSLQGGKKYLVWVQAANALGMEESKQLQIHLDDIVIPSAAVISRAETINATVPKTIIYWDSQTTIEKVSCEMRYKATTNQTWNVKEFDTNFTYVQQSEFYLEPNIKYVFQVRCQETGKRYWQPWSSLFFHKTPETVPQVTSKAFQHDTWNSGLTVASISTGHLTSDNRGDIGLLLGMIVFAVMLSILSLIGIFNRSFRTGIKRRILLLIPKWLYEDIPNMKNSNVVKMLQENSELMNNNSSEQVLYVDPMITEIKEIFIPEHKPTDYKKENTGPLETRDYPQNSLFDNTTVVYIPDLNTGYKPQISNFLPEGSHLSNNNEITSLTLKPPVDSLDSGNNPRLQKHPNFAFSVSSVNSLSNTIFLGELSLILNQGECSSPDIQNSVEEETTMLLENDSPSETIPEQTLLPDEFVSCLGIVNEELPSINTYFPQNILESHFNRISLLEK

Interleukin-23 receptor [4] = molecular target: T1, Interleukin-23 receptor; assay: Inhibition of interleukin-23 binding to human interleukin-23 receptor incubated for 2 hrs by competitive binding ELISA

Structure (SMILES)	half-life at 20 µM [1] [h]	half-life at 20 µM [2] [h]	IC50 (Interleukin-23 receptor [3]) [µM]	IC50 (Interleukin-23 receptor [4]) [µM]
CC(=O)NCCOc1ccc(C[C@H](NC(=O)[C@@H](NC(=O)[C@H](CCC(N)=O)NC(=O)[C@H](Cc2c[nH]c3ccccc23)NC(=O)[C@@H](NC(=O)[C@H](CCC(N)=O)NC(=O)[C@@H](NC(C)=O)C(C)(C)S)[C@@H](C)O)C(C)(C)S)C(=O)N[C@@H](Cc2ccc3ccccc3c2)C(=O)N[C@@](C)(CC(C)C)C(=O)N[C@@H](CCC(N)=O)C(=O)N[C@@H](CC(N)=O)C(=O)N[C@@H](CC(N)=O)C(N)=O)cc1	> 6	> 6	< 0.01	< 0.01
CC(=O)NCCCC[C@](C)(NC(=O)[C@H](Cc1ccc2ccccc2c1)NC(=O)[C@H](Cc1ccc(OCCNC(C)=O)cc1)NC(=O)[C@@H](NC(=O)[C@H](CCC(N)=O)NC(=O)[C@H](Cc1c[nH]c2ccccc12)NC(=O)[C@@H](NC(=O)[C@H](CNC(C)=O)NC(=O)[C@@H](NC(C)=O)C(C)(C)S)[C@@H](C)O)C(C)(C)S)C(=O)N[C@@H](CCC(=O)O)C(=O)N[C@@H](CC(N)=O)C(=O)NCC(N)=O	> 6	> 6	< 0.01	0.01 to 0.025
CC(=O)N[C@H]1CCSC[C@@H](C(=O)N[C@@H](Cc2ccc(OCCN)cc2)C(=O)N[C@@H](Cc2ccc3ccccc3c2)C(=O)NC(C)(C)C(=O)N[C@@H](CCC(=O)O)C(=O)N[C@@H](CC(N)=O)C(=O)NCC(N)=O)NC(=O)[C@H](CCC(N)=O)NC(=O)[C@H](Cc2c[nH]c3ccccc23)NC(=O)[C@H]([C@@H](C)O)NC(=O)[C@H](CCC(N)=O)NC1=O	2 to 3	< 1	< 0.01	< 0.01
CC(=O)NCCCC[C@H](NC(=O)[C@](C)(CCCCNC(C)=O)NC(=O)[C@H](Cc1ccc2ccccc2c1)NC(=O)[C@H](Cc1ccc(OCCNC(C)=O)cc1)NC(=O)[C@@H](NC(=O)[C@H](CCC(N)=O)NC(=O)[C@H](Cc1c[nH]c2ccccc12)NC(=O)[C@@H](NC(=O)[C@H](CCC(N)=O)NC(=O)[C@@H](NC(C)=O)C(C)(C)S)[C@@H](C)O)C(C)(C)S)C(=O)N[C@@H](CC(N)=O)C(=O)NCC(N)=O	> 6	> 6	< 0.01	< 0.01
CC(=O)NCCCC[C@H](NC(=O)C(C)(C)NC(=O)[C@H](Cc1ccc2ccccc2c1)NC(=O)[C@H](Cc1ccc(OCCNC(C)=O)cc1)NC(=O)[C@@H](NC(=O)[C@H](CCC(N)=O)NC(=O)[C@H](Cc1c[nH]c2ccccc12)NC(=O)[C@@H](NC(=O)[C@H](CCC(N)=O)NC(=O)[C@@H](NC(C)=O)C(C)(C)S)[C@@H](C)O)C(C)(C)S)C(=O)N[C@@H](CC(N)=O)C(=O)N[C@@H](CC(N)=O)C(N)=O	> 6	> 6	< 0.01	< 0.01
CC(=O)NCCCC[C@H](NC(=O)[C@](C)(CCCN)NC(=O)[C@H](Cc1ccc2ccccc2c1)NC(=O)[C@H](Cc1ccc(OCCN)cc1)NC(=O)[C@@H]1CSCC[C@H](NC(C)=O)C(=O)N[C@@H](CCC(N)=O)C(=O)N[C@@H]([C@@H](C)O)C(=O)N[C@@H](Cc2c[nH]c3ccccc23)C(=O)N[C@@H](CCC(N)=O)C(=O)N1)C(=O)N[C@@H](CC(N)=O)C(=O)NCC(N)=O	3 to 6	3 to 6	< 0.01	< 0.01
CC(=O)NCCCC[C@H](NC(=O)[C@](C)(CO)NC(=O)[C@H](Cc1ccc2ccccc2c1)NC(=O)[C@H](Cc1ccc(OCCN)cc1)NC(=O)[C@@H]1CSCC[C@H](NC(C)=O)C(=O)N[C@@H](CCC(N)=O)C(=O)N[C@@H]([C@@H](C)O)C(=O)N[C@@H](Cc2c[nH]c3ccccc23)C(=O)N[C@@H](CCC(N)=O)C(=O)N1)C(=O)N[C@@H](CC(N)=O)C(=O)NCC(N)=O	2 to 3	< 1	< 0.01	< 0.01
CC(=O)N[C@H]1CCSC[C@@H](C(=O)N[C@@H](Cc2ccc(OCCN)cc2)C(=O)N[C@@H](Cc2ccc3ccccc3c2)C(=O)N[C@@](C)(CCCCN)C(=O)N[C@@H](CCC(=O)O)C(=O)N[C@@H](CC(N)=O)C(=O)NCC(N)=O)NC(=O)[C@H](CCC(N)=O)NC(=O)[C@H](Cc2c[nH]c3ccccc23)NC(=O)[C@H]([C@@H](C)O)NC(=O)[C@H]([C@@H](C)O)NC1=O	3 to 6	3 to 6	< 0.01	< 0.01
CC(=O)N[C@H]1CCSC[C@@H](C(=O)N[C@@H](Cc2ccc(OCCN)cc2)C(=O)N[C@@H](Cc2c[nH]c3ccccc23)C(=O)N[C@@H](CCC(C)C)C(=O)N[C@@H](CCC(=O)O)C(=O)N[C@@H](CC(N)=O)C(=O)NCC(N)=O)NC(=O)[C@H](CCC(N)=O)NC(=O)[C@H](Cc2c[nH]c3ccccc23)NC(=O)[C@H]([C@@H](C)O)NC(=O)[C@H](CCC(N)=O)NC1=O	< 1	< 1	< 0.01	0.01 to 0.025
CC(=O)N[C@H](C(=O)N[C@@H](CCC(N)=O)C(=O)N[C@H](C(=O)N[C@@H](Cc1c[nH]c2ccccc12)C(=O)N[C@@H](CCC(N)=O)C(=O)N[C@H](C(=O)N[C@@H](Cc1ccc(OCCN)cc1)C(=O)N[C@@H](Cc1ccc2ccccc2c1)C(=O)NC(C)(C)C(=O)N[C@@H](CCC(=O)O)C(=O)N[C@@H](CC(N)=O)C(=O)N[C@@H](CC(N)=O)C(N)=O)C(C)(C)S)[C@@H](C)O)C(C)(C)S	> 6	> 6	< 0.01	< 0.01
CC(=O)NCCCC[C@H](NC(=O)C(C)(C)NC(=O)[C@H](Cc1ccc2ccccc2c1)NC(=O)[C@H](Cc1ccc(OCCN)cc1)NC(=O)[C@@H](NC(=O)[C@H](CCC(N)=O)NC(=O)[C@H](Cc1c[nH]c2ccccc12)NC(=O)[C@@H](NC(=O)[C@@H](NC(=O)[C@@H](NC(C)=O)C(C)(C)S)[C@@H](C)O)[C@@H](C)O)C(C)(C)S)C(=O)N[C@@H](CC(N)=O)C(=O)N[C@@H](CC(N)=O)C(N)=O	> 6	> 6	< 0.01	
CC(=O)NCCCC[C@H](NC(=O)C(C)(C)NC(=O)[C@H](Cc1ccc2ccccc2c1)NC(=O)[C@H](Cc1ccc(OCCN)cc1)NC(=O)[C@@H](NC(=O)[C@H](CCC(N)=O)NC(=O)[C@H](Cc1c[nH]c2ccccc12)NC(=O)[C@@H](NC(=O)[C@H](CC(N)=O)NC(=O)[C@@H](NC(C)=O)C(C)(C)S)[C@@H](C)O)C(C)(C)S)C(=O)N[C@@H](CC(N)=O)C(=O)N[C@@H](CCC(N)=O)C(N)=O	> 6	> 6	< 0.01	
COc1ccc(C[C@H](NC(=O)[C@@H](NC(=O)[C@H](CCC(N)=O)NC(=O)[C@H](Cc2c[nH]c3ccccc23)NC(=O)[C@@H](NC(=O)[C@H](CCC(N)=O)NC(=O)[C@@H](NC(C)=O)C(C)(C)S)[C@@H](C)O)C(C)(C)S)C(=O)N[C@@H](Cc2ccc3ccccc3c2)C(=O)NC(C)(C)C(=O)N[C@@H](CCCCNC(C)=O)C(=O)N[C@@H](CC(N)=O)C(=O)N[C@@H](CC(N)=O)C(N)=O)cc1	> 6	3 to 6	< 0.01	
COc1ccc(C[C@H](NC(=O)[C@@H](NC(=O)[C@H](CCC(N)=O)NC(=O)[C@H](Cc2c[nH]c3ccccc23)NC(=O)[C@@H](NC(=O)[C@H](CCC(N)=O)NC(=O)[C@@H](NC(C)=O)C(C)(C)S)[C@@H](C)O)C(C)(C)S)C(=O)N[C@@H](Cc2ccc3ccccc3c2)C(=O)NC(C)(C)C(=O)N[C@@H](CCC(=O)O)C(=O)N[C@@H](CC(N)=O)C(=O)N[C@@H](CC(N)=O)C(N)=O)cc1	> 6	2 to 3	< 0.01	
CC(=O)N[C@H](C(=O)N[C@@H](CC(N)=O)C(=O)N[C@H](C(=O)N[C@@H](Cc1c[nH]c2ccccc12)C(=O)N[C@@H](CCC(N)=O)C(=O)N[C@H](C(=O)N[C@@H](Cc1ccc(OCCN)cc1)C(=O)N[C@@H](Cc1ccc2ccccc2c1)C(=O)N[C@@H](CCC(C)C)C(=O)N[C@@H](CCC(=O)O)C(=O)N[C@@H](CC(N)=O)C(=O)N[C@@H](C)C(N)=O)C(C)(C)S)[C@@H](C)O)C(C)(C)S	< 1	1 to 2	< 0.01	
CC[C@H](NC(=O)[C@H](CC(N)=O)NC(=O)[C@H](CCCCNC(C)=O)NC(=O)C(C)(C)NC(=O)[C@H](Cc1ccc2ccccc2c1)NC(=O)[C@H](Cc1ccc(OC)cc1)NC(=O)[C@@H](NC(=O)[C@H](CCC(N)=O)NC(=O)[C@H](Cc1c[nH]c2ccccc12)NC(=O)[C@@H](NC(=O)[C@H](CC(N)=O)NC(=O)[C@@H](NC(C)=O)C(C)(C)S)[C@@H](C)O)C(C)(C)S)C(N)=O	> 6	3 to 6	< 0.01	
CC(=O)N[C@H](C(=O)N[C@@H](CCC(N)=O)C(=O)N[C@H](C(=O)N[C@@H](Cc1c[nH]c2ccccc12)C(=O)N[C@@H](CCC(N)=O)C(=O)N[C@H](C(=O)N[C@@H](Cc1ccc(OCCN)cc1)C(=O)N[C@@H](Cc1ccc2ccccc2c1)C(=O)N[C@@H](CCC(C)C)C(=O)N[C@@H](CCC(=O)O)C(=O)N[C@@H](CC(N)=O)C(=O)N[C@@H](C)C(N)=O)C(C)(C)S)[C@@H](C)O)C(C)(C)S	< 1	< 1	0.01 to 0.025	
